This note sets out measurements from article PMC6934184, “Selective DNA-PKcs inhibition extends the therapeutic index of localized radiotherapy and chemotherapy” (The Journal of Clinical Investigation, 2019).

For the test, the target named is T1, SGK2 (Homo sapiens, UniProt Q9HBY8).
T1 construct: purchased Thermo Fisher Scientific (Life Technologies) SelectScreen
The test can be described thus: SelectScreen Z'LYTE. Format: biochemical. The gist of the method: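 NU5455 was profiled across the SelectScreen Broad panel of kinase activity and binding assays. Z'LYTE reactions such as CSF1R ran at apparent Km ATP, while the Adapta CAMK1 assay used ATP listed as 10. Values are given as percent.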

T1 sequence (Q9HBY8 whole entry): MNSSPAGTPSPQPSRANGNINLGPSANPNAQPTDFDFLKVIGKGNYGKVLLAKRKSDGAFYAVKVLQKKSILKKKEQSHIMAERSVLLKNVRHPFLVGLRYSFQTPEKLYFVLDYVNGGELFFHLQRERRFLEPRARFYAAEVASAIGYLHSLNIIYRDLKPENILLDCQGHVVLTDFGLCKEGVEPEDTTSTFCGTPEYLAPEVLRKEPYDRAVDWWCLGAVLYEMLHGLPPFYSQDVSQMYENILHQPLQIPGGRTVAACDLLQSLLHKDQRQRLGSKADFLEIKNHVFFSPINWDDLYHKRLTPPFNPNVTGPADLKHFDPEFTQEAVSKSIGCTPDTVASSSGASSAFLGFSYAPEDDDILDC

What is called inhibition is the change of the read-out against control, counted positive when it falls. For `CN(C(=O)CN1CCOCC1)c1ccc2sc3c(-c4cccc5c(=O)cc(N6CC7CCC(C6)O7)oc45)cccc3c2c1` [NU5455], the inhibition at 1 µM was -2.7%.
